Laboratory results: PubChem BioAssay (NCI)
“And” between values parts separate entries of the source, which are not always exact repeats. Identical values can stand only once.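 The compound was tested at five concentrations on cells cultured in 96-well plates, with a 48-hour exposure period. At the GI50, growth is halved. TGI: concentration producing complete growth inhibition.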

Tests used:
Test in all cases: NCI-60 cell line screen, 48 h
DMS 273 small cell lung = test system: DMS 273 small cell lung
LXFL 529 NSCLC = test system: LXFL 529 NSCLC
RXF-631 renal = test system: RXF-631 renal
DMS 114 small cell lung = test system: DMS 114 small cell lung
KM20L2 colon = test system: KM20L2 colon
HOP-18 NSCLC = test system: HOP-18 NSCLC
XF 498 CNS = test system: XF 498 CNS
BT-549 breast = test system: BT-549 breast
MDA-N = test system: MDA-N

SMILES | TGI (DMS 273 small cell lung) | TGI (LXFL 529 NSCLC) | TGI (DMS 114 small cell lung) | TGI (KM20L2 colon) | TGI (HOP-18 NSCLC) | TGI (XF 498 CNS) | GI50 (BT-549 breast) | TGI (BT-549 breast) | other results
COc1ccc2c(CCNC(=O)/C=C/c3ccccc3)c(C(C)=O)[nH]c2c1[N+](=O)[O-] | 29.2 µM | > 100 µM | > 100 µM | > 100 µM | – | – | – | – | TGI (RXF-631 renal): 28.4 µM
NCc1c(C(N)=O)ncn1Cc1ccccc1 | > 100 µM | > 100 µM | > 100 µM | > 100 µM | > 100 µM | > 100 µM | – | – | –
CC(C)C[C@H](NC(=O)[C@@H](NC(=O)c1cccc(-c2ccccc2)n1)[C@@H](C)O)B(O)O | – | – | – | – | – | – | 0.0047 µM | – | –
Cn1c(=O)c(C(=O)NC(=O)NCCCCCOC(=O)CCCCCCCCCCC(=O)OCCCCCNC(=O)NC(=O)c2cn(Cc3ccccc3)c(=O)n(C)c2=O)cn(Cc2ccccc2)c1=O | > 100 µM | > 100 µM | > 100 µM | > 100 µM | > 100 µM | > 100 µM | – | – | –
COc1c(Cl)ccc2c(-c3nc4cc(Cl)c(F)cc4s3)cc(=O)oc12 | – | – | – | – | – | – | 7.58 µM | 37.5 µM | –
O=C(Nc1ccc(Br)cc1)C(=O)C(C(=O)c1ccccc1F)C1OC(=O)c2ccccc21 (stereo not drawn) | > 100 µM | 89.5 µM | 62.8 µM | > 100 µM | > 100 µM | – | – | – | TGI (RXF-631 renal): > 100 µM
CCOC(=O)C(C)(C)Oc1ccc2c(-c3ccc(Cl)cc3)c(-c3ccc(Cl)cc3)c(=O)oc2c1 | > 100 µM | > 100 µM | > 100 µM | > 100 µM | – | – | – | – | TGI (RXF-631 renal): > 100 µM
CC(=O)[O-].[Zn].c1ccc(/C(=N\Nc2ccccn2)c2ccccn2)cc1 | 1.88 µM | 1.79 µM | 0.0192 µM | 1.75 µM | 0.918 µM | – | – | – | –
N#C/C(=C\c1c(-c2ccccc2)[nH]c2ccccc12)C(=O)c1ccccc1 | – | – | – | – | – | – | 3 µM | > 100 µM | –
Cc1ccc(C=NC23CC4CC(CC(C4)C2)C3)cc1 | > 100 µM | – | > 100 µM | > 100 µM | – | > 100 µM | – | – | –
CC1CCCc2c1c1ccc3c(O)cccc3c1oc2=O (stereo not drawn) | > 100 µM | > 100 µM | 76.3 µM | > 100 µM | > 100 µM | > 100 µM | – | – | –
Cc1cc(C)c(S(=O)(=O)N(CCc2cccc(Br)c2)Cc2ccc(-c3cccc(S(C)(=O)=O)c3)cc2)c(C)c1 | – | – | – | – | – | – | > 100 µM | > 100 µM | –
COc1cccc(N=N/C(=N\NC(=O)c2cc(Br)ccc2O)c2ccc(N(CCC#N)CCC#N)cc2OC)c1 | – | – | – | – | – | – | 74.1 µg/mL | > 150 µg/mL | GI50 (MDA-N): 59.3 µg/mL; TGI (MDA-N): > 150 µg/mL
O=C(NC1C2CC3CC(C2)CC1C3)/C(Cl)=C1/Sc2ccccc2NC1=O (stereo not drawn) | > 100 µM | > 100 µM | > 100 µM | > 100 µM | > 100 µM | > 100 µM | – | – | –
Cc1ncc(C(=O)Nc2ccc(CN3CCN(C)CC3)c(C(F)(F)F)c2)cc1C#Cc1c(N)ncc2ccccc12 | – | – | – | – | – | – | 0.894 µM | 1.96 µM | –
Clc1cc(-c2ccccc2)nc2ccccc12 | – | – | – | – | – | – | – | 80.4 µM | TGI (MDA-N): > 100 µM

SMILES | TGI (DMS 273 small cell lung) | TGI (LXFL 529 NSCLC) | TGI (DMS 114 small cell lung) | TGI (KM20L2 colon) | TGI (HOP-18 NSCLC) | TGI (XF 498 CNS) | GI50 (BT-549 breast) | TGI (BT-549 breast) | other results
COc1nc2c(nc(N)n2C2OCC(O)C(O)C2O)c(=O)n1C (stereo not drawn) | – | > 100 µM | > 100 µM | > 100 µM | > 100 µM | > 100 µM | – | – | –
COc1ccc2c(c1)c(-c1ccc(-c3cn(C)c4ccc(OC)cc34)[nH]1)cn2C | – | – | – | – | – | – | 2.09 µM | 5.3 µM | –
Cc1nc2c(N3CCCC3)nc(N3CCNCC3)nc2nc1NCc1ccccc1 | – | – | – | – | – | – | 5.05 µM | 10.7 µM and 14.8 µM | GI50 (MDA-N): 4.38 µM; TGI (MDA-N): 9.44 µM and 3.28 µM
Clc1ccc(CNc2nccc(-c3cnn4ncccc34)n2)cc1 | – | – | – | – | – | – | 6.4 µM | 14.7 µM | –
CCN(CC)c1ccc(N=C2C=C(Cl)C(=O)c3ncccc32)c(C)c1 | 16.8 µM | – | 8.19 µM | 26.9 µM | 9.75 µM | 18.7 µM | – | – | TGI (RXF-631 renal): 35.3 µM
CS(=O)(=O)N(CCC#N)c1ccc(C=O)cc1 | > 100 µM | > 100 µM | > 100 µM | > 100 µM | – | > 100 µM | – | – | –
N#Cc1ccc(Oc2cccc(Oc3ccccc3)c2)cc1C#N | – | > 100 µM | > 100 µM | > 100 µM | – | – | – | – | TGI (RXF-631 renal): > 100 µM; GI50 (KM20L2 colon): > 100 µM
NC(=O)c1ccccc1NC(=O)c1ccccc1Cl | – | – | – | – | – | – | > 100 µM | > 100 µM | –
O=C(O)c1ccccc1N=Nc1ccc2oc(=O)c(C(=O)Nc3ccccc3)cc2c1 | > 100 µM | – | 76.9 µM | 83.9 µM | > 100 µM | > 100 µM | – | – | –
Cc1ccc2nc(-c3ccc(N)c4ccccc34)[nH]c2c1 | – | – | – | – | – | – | 0.399 µM | 21.1 µM | –
O=S(=O)(NC1=NCCN1C(=S)SN1CCn2c1nsc2=S)c1ccccc1Cl | – | – | – | – | – | – | 8 µM | 36 µM | –
Nc1cc(S(N)(=O)=O)ccc1SSc1ccc(S(N)(=O)=O)cc1N | – | – | – | – | – | – | – | > 100 µM | TGI (MDA-N): > 100 µM
O=C(CNc1ccc2c(=S)c3ccccc3[nH]c2c1)Nc1ccccc1-c1ccccc1NC(=O)CNc1ccc2c(=S)c3ccccc3[nH]c2c1 | > 76.3 µM | 24.6 µM | 36.6 µM | 47.4 µM | 29.9 µM | 41.1 µM | – | 56.7 µM | TGI (MDA-N): > 51.3 µM
c1ccc(B2OCC(C3OB(c4ccccc4)OC4COB(c5ccccc5)OC43)O2)cc1 (stereo not drawn) | – | – | – | – | – | – | – | > 100 µM | TGI (MDA-N): > 100 µM
CN(C)CCSCCO | – | – | – | – | – | – | – | > 100 µM | TGI (MDA-N): > 100 µM
CCn1c(=O)c2ccccc2n2c(=O)c3cc4ccccc4cc3nc12 | > 100 µM | > 100 µM | > 100 µM | > 100 µM | – | 49 µM | – | – | –
